Assay results as given in PMC10508264, “Exploring the antioxidant, antimicrobial, cytotoxic and biothermodynamic properties of novel morpholine derivative bioactive Mn(II), Co(II) and Ni(II) complexes – combined experimental and theoretical measurements towards DNA/BSA/SARS-CoV-2 3CL^Pro” (RSC Medicinal Chemistry, 2023).

What was measured:
CT-DNA = test: DNA binding by viscometric (hydrodynamic) technique
Protocol: The hydrodynamic properties were measured using an Ostwald viscometer with the help of a thermostat (25 ± 0.1 °C). The specific viscosity of DNA was also measured in the presence and absence of the test samples.[13,30]
Generally, when the major/minor groove binding, electrostatic, partial, and non-classical interaction modes are involved between chemical substances and DNA base pairs, the final DNA relative viscosity remains unchanged or undergoes a very negligible change due to reducing the contour length of DNA. When the intercalation binding modes are involved between a chemical substance and DNA base pairs via π–π stacking interactions and hydrophobic forces, an increase in relative viscosity is noted due to a rise in the contour length of DNA. Moreover, for the purpose of observing alterations in the CT-DNA helical structure, the viscosity findings for CT-DNA, various concentrations of chemical substances present, and EtBr were recorded. It was also noted that the absolute viscosity rose consistently along with the incremental concentration of each substance at the fixed DNA concentration. As a result of the strong binding mode of intercalation, the contour length of the double-helix DNA rises.[72] The obtained results are also compared with those of the classical intercalator (EB). The affinity interaction and their slope values were observed from the relative specific viscosity (η/η0)^1/3 plotted as a straight line contrasting [compound]/[DNA] and absolute specific viscosity of DNA in the presence or absence of chemical substances was evaluated using eqn (11) (Table 3). In the experiment, it was clearly noted that the slope values for all samples increased due to the rising binding affinity. The evaluated slopes were in the following sequence: (EB) 1.215 > (2) 0.860 > (3) 0.801 > (1) 0.662 > (HL) 0.490 (Fig. S21 ^† and Table 3). […] Due to the existence of 2,2′-bipyridine and the morpholine-fused aromatic planar systems, compounds can interact with DNA robustly via intercalation. The outcomes agreed with the observed outcomes of electronic absorption spectral characteristics.
11 [drawing 21] where η and η0 represent the specific viscosity of DNA in the presence of the complex and the specific viscosity of DNA alone, t0, tDNA and tcomplex represent the average flow time of the Tris–HCl buffer solution, the average flow time of the DNA alone solution, and the average flow time of DNA interacted with the samples, respectively. Error limit ± 2.5% (P < 0.025). […]
2.2.4. Assessment of DNA affinity by hydrodynamic technique
Hydrodynamic properties were performed using an Ostwald viscometer with the help of a thermostat (25 ± 0.1 °C). The experiment was performed of all samples, including ethidium bromide at various concentrations (20, 40, 60, 80, 100 µM) and each test compound was mixed with the deoxyribonucleic acid solution (100 µM) in the Ostwald viscometer. With a help of digital stopwatch, average flow time was gauged three times for each addition, and the specific viscosity of deoxyribonucleic acid was also measured in the presence and absence of test samples. […]
Also, the emission spectral titration for all compounds was also carried out at a fixed concentration (25 μM) of BSA with an incremental concentration of substances (0–25 µM)

Pseudomonas aeruginosa = test: Agar disc diffusion, strain D; assay type: cell-based; parameters: Inhibition%: concentration or dose not given beside the values; conditions: for Diameter of clear zone inhibition: control 6 mm
EB–DNA = EB–DNA competitive fluorescence emission titration; assay type: binding; conditions: for KSV (SV method I), DNA / Kass (SV method II), DNA / Kq (SV method I), DNA: EB–DNA; for Kq (SV method I), DNA: τ0 = 10^−8 s; for Kapp (apparent binding constant): KEB = 10^7 M^−1 at 50 μM EB; for LWB method KLB: Lineweaver–Burk
Protocol: (§1) Titrations were performed for all tested compounds (1–200 μM) with pre-incubated EB-bound DNA and the intensity variations between 510 nm and 610 nm were carefully monitored in the presence and absence of DNA (200 μM) during the initial emission and excitation by EB.[31]
(§2) Fluorescence emission spectral titration is an efficient approach to evaluating the binding properties of DNA/BSA biomolecules. In general, the fluorescence of EB is quite weak in aqueous solution, but when it is bound to DNA, the fluorescence intensity rises. However, it is a well-known imperative intercalator and is more supportive in distinguishing the binding strength of non-fluorescence test substances. Also, the fluorescence emission spectra of the EB–DNA adduct were examined at 610 nm in the absence and presence of rising quantities of each test compound. When the complex concentration (0–240 μM) rises, the fluorescence intensity of the EB-bound DNA complex diminishes owing to the displacement of EB from CT-DNA. A notable reduction in the fluorescence emission intensity at 610 nm is observed (Fig. S26 ^† and Table 4). The photoelectron shift from DNA's guanine base to the excited states may be the cause of the frequency quenching in the emission of the test substance by DNA. […] Therefore, the competitive binding experiment can make use of EB as a fluorescent probe. […] This is further evidence that complexes (1–3) strongly bind intercalatively with DNA. The observed results agree well with the data from electronic absorption spectral measurements. Additionally, the experiment was extended to examine the binding properties between the test substance and BSA. BSA mostly contains three amino acid residues (tyrosine, tryptophan, and phenylalanine), which give it its inherent fluorescence. […] These two residues also have minimal quenching effects. Tryptophan in BSA fluoresces mostly because of a residue that is trapped inside a hydrophobic cavity. Therefore, it is crucial to model potential binding interactions with the metal complexes. […] The fluorescence intensity also reduces while the test substances (1–3) are steadily blended with the BSA solution, proving that complexes (1–3) interact with BSA via altering the protein's secondary structure, which also leads to an alteration in the tryptophan environment of BSA (Fig. S27 ^†). Furthermore, BSA structural similarities share 76% sequence identity with human serum albumin (HSA), the most prevalent protein in blood plasma that transports ions and proteins to cells and tissues. HSA is able to readily crystallize under the trivalent cations, but BSA has no ready crystallizing property. However, they consist of parallel physicochemical properties to each other.[74,75] Additionally, the Stern–Volmer eqn (12) and (13) were employed to analyze the data (Fig. S28 ^† and Table 4). Additionally, the kq values for DNA and BSA binding were acquired in the range of 1.1636–2.8863 × 10^12 and 2.6390–7.0774 × 10^12 mol^−1 s^−1, respectively. They are also much greater than the collision quenching constant value (2.0 × 10^10 mol^−1 s^−1). Therefore, it is assumed that the static quenching process was brought on by adduct construction between the test compounds and BSA rather than a dynamic collision. However, fluorescence spectroscopy is generally plagued by the inner filter effect (IFE), disturbing spectral analysis. The energizing ray is attenuated due to the highly concentrated solution sample. As a result, strong fluorescence is only seen on surfaces facing the excitation beam.

BSA = BSA (Bos taurus, UniProt P02769); test: BSA fluorescence quenching titration; assay type: binding, bovine; conditions: for Gibb's free energy change (SV method II), BSA: T = 298 K; for Kq (SV method I), BSA: τ0 = 10^−8 s; for P, ratio of fluorescence quantum efficiency, BSA: F/F0 vs 1/[BSA]
Protocol: as §1, §2

Escherichia coli = test: Agar disc diffusion, strain A; assay type: cell-based; parameters: Inhibition%: concentration or dose not given beside the values; conditions: for Diameter of clear zone inhibition: control (DMSO) 6 mm

Compound | Slope of (η/η0)^1/3 vs [compound]/[DNA] (CT-DNA) | Relative specific viscosity (η/η0)^1/3 (CT-DNA; [complex]/[DNA] = 0.2) | Relative specific viscosity (η/η0)^1/3 (CT-DNA; [complex]/[DNA] = 0.4) | Relative specific viscosity (η/η0)^1/3 (CT-DNA; [complex]/[DNA] = 0.6) | Relative specific viscosity (η/η0)^1/3 (CT-DNA; [complex]/[DNA] = 0.8) | Relative specific viscosity (η/η0)^1/3 (CT-DNA; [complex]/[DNA] = 1.0) | Inhibition% (Pseudomonas aeruginosa) [%] | Diameter of clear zone inhibition (Pseudomonas aeruginosa) [mm] | Scatchard analysis KSA (EB–DNA) [M⁻¹] | KSV (SV method I), DNA (EB–DNA) [M⁻¹] | Kass (SV method II), DNA (EB–DNA) [M⁻¹] | Kq (SV method I), DNA (EB–DNA) [M⁻¹ s⁻¹] | Kapp (apparent binding constant) (EB–DNA) [M⁻¹] | LWB method KLB (EB–DNA) [M⁻¹] | KSV (SV method I), BSA (BSA) [M⁻¹] | Kass (SV method II), BSA (BSA) [M⁻¹] | n, number of binding sites (SV method II), BSA (BSA) | Gibb's free energy change (SV method II), BSA (BSA) [kJ/M] | Kq (SV method I), BSA (BSA) [M⁻¹ s⁻¹] | P, ratio of fluorescence quantum efficiency, BSA (BSA) | also measured
[Mn+2].[O-]c1ccccc1N=Cc1ccc(N2CCOCC2)cc1.[O-]c1ccccc1N=Cc1ccc(N2CCOCC2)cc1.c1ccc(-c2ccccn2)nc1 [(1)] | 0.662 | 0.66 | 0.78 | 0.88 | 1.02 | 1.12 | 63 | 16 | 30094 | 16755 | 11954 | 1.6755e+12 | 5.926e+06 | 7149 | 46510 | 20050 | 0.954 | -24.5 | 4.651e+12 | 0.287 | Inhibition% (Escherichia coli): 40%; Diameter of clear zone inhibition (Escherichia coli): 10 mm
[Co+2].[O-]c1ccccc1N=Cc1ccc(N2CCOCC2)cc1.[O-]c1ccccc1N=Cc1ccc(N2CCOCC2)cc1.c1ccc(-c2ccccn2)nc1 [(2)] | 0.860 | 0.77 | 0.88 | 1.05 | 1.18 | 1.48 | 54 | 13 | 33185 | 28863 | 32903 | 2.8863e+12 | 8.349e+06 | 13497 | 70740 | 54550 | 1.018 | -27.0 | 7.074e+12 | 0.385 | Inhibition% (Escherichia coli): 40%; Diameter of clear zone inhibition (Escherichia coli): 10 mm
